Assay results reported in patent US8546401B2, “5,6-disubstituted oxindole-derivatives and use thereof for treating vasopressin-dependent diseases” (AbbVie Deutschland GmbH & Co. KG, priority 2007, dated 2013).
pKi: −log10 of the molar value.

Legend:
[1] = target: T1, human vasopressin V1a receptor (Homo sapiens, UniProt P37288); assay: Vasopressin V1a receptor binding assay; conditions: selectivity quotient, human receptors
T1 construct: expressed in transfected cells; host or cells: CHO-K1 (cell line hV1a_5_CHO), membrane preparation
T1 sequence (P37288 whole entry): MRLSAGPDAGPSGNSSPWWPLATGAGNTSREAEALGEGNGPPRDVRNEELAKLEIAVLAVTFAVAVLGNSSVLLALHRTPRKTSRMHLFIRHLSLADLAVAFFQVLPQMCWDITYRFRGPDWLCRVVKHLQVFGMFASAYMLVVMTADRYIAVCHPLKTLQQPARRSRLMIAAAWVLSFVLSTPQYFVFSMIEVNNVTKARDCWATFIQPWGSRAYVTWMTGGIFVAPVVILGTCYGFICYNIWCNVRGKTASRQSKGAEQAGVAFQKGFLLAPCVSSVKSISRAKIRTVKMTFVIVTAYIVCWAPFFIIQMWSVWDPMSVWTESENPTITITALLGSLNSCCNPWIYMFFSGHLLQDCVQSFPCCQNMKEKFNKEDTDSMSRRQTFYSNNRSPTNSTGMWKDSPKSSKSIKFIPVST
Procedure: 2. Vasopressin V1a Receptor Binding Assay:
The test substances were dissolved in a concentration of 10^−2 M in DMSO. Further dilution of these DMSO solutions took place in incubation buffer (50 mM Tris, 10 mM MgCl2, 0.1% BSA, pH 7.4).
(§1) CHO-K1 cells with stably expressed human vasopressin V1a receptor (clone 5) were harvested and homogenized in 50 mM Tris-HCl and in the presence of protease inhibitors (Roche complete Mini #1836170) using a Polytron homogenizer at intermediate setting for 2×10 seconds, and subsequently centrifuged at 40 000×g for 1 h. The membrane pellet was again homogenized and centrifuged as described and subsequently taken up in 50 mM Tris-HCl, pH 7.4, homogenized and stored in aliquots frozen in liquid nitrogen at −190° C.
(§2) The binding assay was carried out by the method based on that of Tahara et al. (Tahara A et al., Brit. J. Pharmacol. 125, 1463-1470 (1998)).
(§3) The incubation buffer was: 50 mM Tris, 10 mM MgCl2, 0.1% BSA, pH 7.4.
In the assay mixture (250 μl), membranes (20 μg/ml protein in incubation buffer) from CHO-K1 cells with stably expressed human V1a receptors (cell line hV1a—5_CHO) were incubated with 0.04 nM ^125I-AVP (8-Arg-vasopressin, NEX 128) in incubation buffer (50 mM Tris, 10 mM MgCl2, 0.1% BSA, pH 7.4) (total binding) or additionally with increasing concentrations of test substance (displacement experiment). The nonspecific binding was determined with 1 μM AVP (Bachem #H1780). Triplicate determinations were carried out.
After incubation (60 minutes at room temperature), the free radioligand was filtered off by vacuum filtration (Skatron cell harvester 7000) through Wathman GF/B glass fiber filter mats, and the filters were transferred into scintillation vials.
The liquid scintillation measurement took place in a model 2000 or 2200CA Tricarb instrument (Packard). Conversion of the measured cpm into dpm was carried out with the aid of a standard quench series.
(§4) The binding parameters were calculated by nonlinear regression in SAS. The algorithms of the program operate in analogy to the LIGAND analysis program (Munson P J and Rodbard D, Analytical Biochem. 107, 220-239 (1980)). The Kd of ^125I-AVP for the recombinant hV1a receptors was determined in saturation experiments. A Kd of 1.33 nM was used to determine the Ki.

human oxytocin receptors = target: T2, human oxytocin receptors (Homo sapiens, UniProt P30559); assay: Oxytocin receptor binding assay; conditions: selectivity quotient
T2 construct: expressed in transfected cells; host or cells: HEK-293, transient expression; lysed and homogenized cells
T2 sequence (P30559 1-389): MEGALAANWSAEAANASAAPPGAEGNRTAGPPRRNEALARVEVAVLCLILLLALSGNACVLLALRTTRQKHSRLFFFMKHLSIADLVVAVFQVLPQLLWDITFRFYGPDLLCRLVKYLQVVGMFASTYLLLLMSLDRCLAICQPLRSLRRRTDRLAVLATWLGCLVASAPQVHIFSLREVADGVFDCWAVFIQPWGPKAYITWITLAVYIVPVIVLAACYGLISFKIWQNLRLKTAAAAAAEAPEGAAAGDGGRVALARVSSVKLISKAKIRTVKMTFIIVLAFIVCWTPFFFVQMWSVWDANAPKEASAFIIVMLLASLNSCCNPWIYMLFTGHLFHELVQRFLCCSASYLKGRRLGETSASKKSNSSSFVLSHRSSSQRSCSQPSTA
Procedure: 4. Oxytocin Receptor Binding Assay
The substances were dissolved in a concentration of 10^−2 M in DMSO and diluted with incubation buffer (50 mM Tris, 10 mM MgCl2, 0.1% BSA, pH 7.4).
Confluent HEK-293 cells with transiently expressing recombinant human oxytocin receptors were centrifuged at 750×g at room temperature for 5 minutes. The residue was taken up in ice-cold lysis buffer (50 mM Tris-HCl, 10% glycerol, pH 7.4 and Roche complete protease inhibitor) and subjected to an osmotic shock at 4° C. for 20 minutes. The lyzed cells were then centrifuged at 750×g at 4° C. for 20 minutes, the residue was taken up in incubation buffer, and aliquots of 10^7 cells/ml were prepared. The aliquots were frozen at −80° C. until used.
On the day of the experiment, the cells were thawed, diluted with incubation buffer and homogenized using a Multipette Combitip (Eppendorf, Hamburg). The reaction mixture of 0.250 ml was composed of 2 to 5×10^4 recombinant cells, 3-4 nM ^3H-oxytocin (PerkinElmer, NET 858) in the presence of test substance (inhibition plot) or only incubation buffer (total binding). The nonspecific binding was determined with 10^−6 M oxytocin (Bachem AG, H2510). Triplicate determinations were set up. Bound and free radioligand were separated by filtration under vacuum with Whatman GF/B glass fiber filters with the aid of a Skatron cell harvester 7000. The bound radioactivity was determined by liquid scintillation measurement in a Tricarb Beta counter, model 2000 or 2200CA (Packard).
The binding parameters were calculated by nonlinear regression analysis (SAS) in analogy to the LIGAND program of Munson and Rodbard (Analytical Biochem 1980; 107: 220-239). The Kd of ^3H-oxytocin for the recombinant hOT receptors is 7.6 nM and was used to determine the Ki.

[2] = target: T3, human vasopressin V1b receptor (Homo sapiens, UniProt P47901); assay: Vasopressin V1b receptor binding assay; conditions: CHO-K1 membranes, 3H-AVP displacement
T3 construct: expressed in transfected cells; host or cells: CHO-K1 (cell line hV1b_3H2_CHO), membrane preparation
T3 sequence (P47901 1-424): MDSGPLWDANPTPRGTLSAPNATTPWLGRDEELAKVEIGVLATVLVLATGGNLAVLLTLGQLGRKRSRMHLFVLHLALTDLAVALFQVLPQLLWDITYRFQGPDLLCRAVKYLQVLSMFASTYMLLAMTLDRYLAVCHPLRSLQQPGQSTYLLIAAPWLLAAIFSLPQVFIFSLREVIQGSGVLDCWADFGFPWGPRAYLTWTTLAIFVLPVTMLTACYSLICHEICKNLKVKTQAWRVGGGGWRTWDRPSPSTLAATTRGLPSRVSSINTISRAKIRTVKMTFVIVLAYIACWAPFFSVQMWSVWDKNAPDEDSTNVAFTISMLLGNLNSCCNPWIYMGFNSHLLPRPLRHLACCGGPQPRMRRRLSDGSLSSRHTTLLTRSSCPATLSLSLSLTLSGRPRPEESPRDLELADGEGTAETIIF
Procedure: 1. Vasopressin V1b Receptor Binding Assay:
The test substances were dissolved in a concentration of 10^−2 M in DMSO and further diluted to 5×10^−4 M to 5×10^−3 M. These serial DMSO predilutions were diluted 1:10 with assay buffer. The substance concentration was further diluted 1:5 in the assay mixture (2% DMSO in the mixture).
as §1, with “V1b” for “V1a”, “3H2)” for “5)”
as §2, §3
In the assay mixture (250 μl), membranes (50 μg/ml protein in incubation buffer) from CHO-K1 cells with stably expressed human V1b receptors (cell line hV1b—3H2_CHO) were incubated with 1.5 nM ^3H-AVP (8-Arg-vasopressin, PerkinElmer #18479) in incubation buffer (50 mM Tris, 10 mM MgCl2, 0.1% BSA, pH 7.4) (total binding) or additionally with increasing concentrations of test substance (displacement experiment). The nonspecific binding was determined with […] (Bachem #H1780). All determinations were carried out as triplicate determinations. After incubation (60 minutes at room temperature), the free radioligand was filtered off by vacuum filtration (Skatron cell harvester 7000) through Wathman GF/B glass fiber filter mats, and the filters were transferred into scintillation vials. The liquid scintillation measurement took place in a model 2000 or 2200CA Tricarb instrument (Packard). Conversion of the measured cpm into dpm was carried out with the aid of a standard quench series.
as §4, with “^3H-AVP” for “^125I-AVP”, “human V1b” for “hV1a”, “is 0.4” for “was determined in saturation experiments. A Kd of 1.33”, “nM and” for “nM”

SMILES | Ki(h − V1a)/Ki(h − V1b)* [1] | Ki(h − OT)/Ki(h − V1b)* (human oxytocin receptors) | pKi [2]
CCOc1ncccc1C1(OC(=O)N2CCN(C3CCN(C)CC3)CC2)C(=O)N(S(=O)(=O)c2ccc(OC)cc2)c2cc(F)c(C#N)cc21 (stereo not drawn) [Example 39, 5-Cyano-3-(2-ethoxypyridin-3-yl)-6-fluoro-1-(4-methoxyphenylsulfonyl)-2-oxo-2,3-dihydro-1H-indol-3-yl 4-(1-methylpiperidin-4-yl)piperazine-1-carboxylate] | ++ (25-75) | +++ (>75) | > 9.00
CCOc1ccccc1C1(NC(=O)N2CCC(N3CCN(CC)CC3)CC2)C(=O)N(S(=O)(=O)c2ccc(OC)cc2OC)c2cc(F)c(C#N)cc21 (stereo not drawn) [Example 16, 4-(4-Ethylpiperazin-1-yl)piperidine-1-[5-cyano-1-(2,4-dimethoxyphenylsulfonyl)-3-(2-ethoxyphenyl)-6-fluoro-2-oxo-2,3-dihydro-1H-indol-3-yl]carboxamide] | + (10-<25) | +++ (>75) | > 9.00
CCOc1ncccc1C1(OC(=O)N2CCN(C3CCN(C)CC3)CC2)C(=O)N(S(=O)(=O)c2ccc(OC)cc2)c2cc(F)c(F)cc21 (stereo not drawn) [Example 52, 3-(2-Ethoxypyridin-3-yl)-5,6-difluoro-1-(4-methoxyphenylsulfonyl)-2-oxo-2,3-dihydro-1H-indol-3-yl 4-(1-methylpiperidin-4-yl)piperazine-1-carboxylate] | ++ (25-75) | + (10-<25) | 8.00 to 9.00
CCOc1ncccc1C1(NC(=O)N2CCN(C3CCN(CC)CC3)CC2)C(=O)N(S(=O)(=O)c2ccc(OC)cc2OC)c2cc(F)c(Cl)cc21 (stereo not drawn) [Example 21, 4-(1-Ethylpiperidin-4-yl)piperazine-1-[5-chloro-1-(2,4-dimethoxyphenylsulfonyl)-3-(2-ethoxypyridin-3-yl)-6-fluoro-2-oxo-2,3-dihydro-1H-indol-3-yl]carboxamide] | ++ (25-75) | +++ (>75) | > 9.00
CCOc1ccccc1C1(NC(=O)N2CCC(N3CCN(C)CC3)CC2)C(=O)N(S(=O)(=O)c2ccc(OC)cc2)c2cc(F)c(C#N)cc21 (stereo not drawn) [Example 15, 4-(4-Methylpiperazin-1-yl)piperidine-1-[5-cyano-3-(2-ethoxyphenyl)-6-fluoro-1-(4-methoxyphenylsulfonyl)-2-oxo-2,3-dihydro-1H-indol-3-yl]carboxamide] | + (10-<25) | +++ (>75) | 8.00 to 9.00

Now from value to molecule:

Ki(h − V1a)/Ki(h − V1b)* [1] | Ki(h − OT)/Ki(h − V1b)* (human oxytocin receptors) | pKi [2] | SMILES
+++ (>75) | +++ (>75) | > 9.00 | CCOc1ccccc1C1(NC(=O)N2CCN(C3CCN(CC)CC3)CC2)C(=O)N(S(=O)(=O)c2ccc(OC)cc2OC)c2cc(F)c(C#N)cc21 (stereo not drawn) [Example 11, 4-(1-Ethylpiperidin-4-yl)piperazine-1-[5-cyano-1-(2,4-dimethoxyphenylsulfonyl)-3-(2-ethoxyphenyl)-6-fluoro-2-oxo-2,3-dihydro-1H-indol-3-yl]carboxamide]
+++ (>75) | + (10-<25) | 7.00 to 8.00 | CCOc1ncccc1C1(NC(=O)N2CCN(C3CCN(C)CC3)CC2)C(=O)N(S(=O)(=O)c2ccc(OC)cc2OC)c2cc(F)c(F)cc21 (stereo not drawn) [Example 31, 4-(1-Methylpiperidin-4-yl)piperazine-1-[1-(2,4-dimethoxyphenylsulfonyl)-3-(2-ethoxy-pyridin-3-yl)-5,6-difluoro-2-oxo-2,3-dihydro-1H-indol-3-yl]carboxamide]
+ (10-<25) | + (10-<25) | > 9.00 | CCOc1ncccc1C1(OC(=O)N2CCN(C3CCN(C)CC3)CC2)C(=O)N(S(=O)(=O)c2ccc(OC)cc2)c2cc(F)c(Cl)cc21 (stereo not drawn) [Example 42, 5-Chloro-3-(2-ethoxypyridin-3-yl)-6-fluoro-1-(4-methoxyphenylsulfonyl)-2-oxo-2,3-dihydro-1H-indol-3-yl 4-(1-methylpiperidin-4-yl)piperazine-1-carboxylate]
+ (10-<25) | ++ (25-75) | 8.00 to 9.00 | CCOc1ncccc1C1(NC(=O)N2CCN(C3CCN(C)CC3)CC2)C(=O)N(S(=O)(=O)c2ccccc2)c2cc(F)c(Cl)cc21 (stereo not drawn) [Example 20, 4-(1-Methylpiperidin-4-yl)piperazine-1-[1-phenylsulfonyl-5-chloro-3-(2-ethoxypyridin-3-yl)-6-fluoro-2-oxo-2,3-dihydro-1H-indol-3-yl]carboxamide]
